Test results from US6121257A, “Sulfamate containing macrocyclic immunomodulators” (Abbott Laboratories, priority 1999, dated 2000).

Test system: human mixed lymphocyte reaction (MLR)
Experiment: human mixed lymphocyte reaction (MLR) assay
Assay type: cell-based
Details: Table 1
Method: The immunosuppressant activity of the compounds of the present invention was determined using the human mixed lymphocyte reaction (MLR) assay described by Kino, T. et al., in Transplantation Proceedings, XIX(5):36-39, Suppl. 6 (1987), hereby incorporated by reference.

SMILES	IC50
CC[C@@H]1/C=C(\C)C[C@H](C)C[C@H](OC)[C@H]2O[C@@](O)(C(=O)C(=O)N3CCCC[C@H]3C(=O)O[C@H](/C(C)=C/[C@@H]3CC[C@@H](OS(=O)(=O)NC(=O)OCc4ccncc4)[C@H](OC)C3)[C@H](C)[C@@H](O)CC1=O)[C@H](C)C[C@@H]2OC [Example 8, (1R,9S,12S,13R,14S,17R,21S,23S,24R,25S,27R)-17-ethyl-1,14-dihydroxy-23,25-dimethoxy-12-((E)-2-{(1R,3R,4R)-3-methoxy-4-[({[(4-pyridinylmethoxy)carbonyl]amino}sulfonyl)oxy]cycyclohexyl}-1-methylethenyl)-13,19,21,27-tetramethyl-2,3,10,16-tetraoxo-11,28-dioxa-4-azatricyclo[22.3.1.0^4,9]octacos-18-ene]	0.1 nM
CC[C@@H]1/C=C(\C)C[C@H](C)C[C@H](OC)[C@H]2O[C@@](O)(C(=O)C(=O)N3CCCC[C@H]3C(=O)O[C@H](/C(C)=C/[C@@H]3CC[C@@H](OS(=O)(=O)NC(=O)OC4CCCCCC4)[C@H](OC)C3)[C@H](C)[C@@H](O)CC1=O)[C@H](C)C[C@@H]2OC [Example 7, (1R,9S,12S,13R,14S,17R,21S,23S,24R,25S,27R)-12-((E)-2-{(1R,3R,4R)-4-[({[(cycloheptyloxy)carbonyl]amino}sulfonyl)oxy]-3-methoxycyclohexyl}-1-methylethenyl)-17-ethyl-1,14-dihydroxy-23,25-dimethoxy-13,19,21,27-tetramethyl-2,3,10,16-tetraoxo-11,28-dioxa-4-azatricyclo[22.3.1.0^4,9]octacos-18-ene]	9.63 nM
CC[C@@H]1/C=C(\C)C[C@H](C)C[C@H](OC)[C@H]2O[C@@](O)(C(=O)C(=O)N3CCCC[C@H]3C(=O)O[C@H](/C(C)=C/[C@@H]3CC[C@@H](OS(=O)(=O)NC(=O)OCc4ccc([N+](=O)[O-])cc4)[C@H](OC)C3)[C@H](C)[C@@H](O)CC1=O)[C@H](C)C[C@@H]2OC [Example 11, (1R,9S,12S,13R,14S,17R,21S,23S,24R,25S,27R)-17-ethyl-1,14-dihydroxy-23,25-dimethoxy-12-[(E)-2-((1R,3R,4R)-3-methoxy-4-{[({[(4-nitrobenzyl)oxy]carbonyl}amino)sulfonyl]oxy}cyclohexyl)-1-methylethenyl]-13,19,21,27-tetramethyl-2,3,10,16-tetraoxo-11,28-dioxa-4-azatricyclo[22.3.1.0^4,9]octacos-18-ene]	6.68 nM
CC[C@@H]1/C=C(\C)C[C@H](C)C[C@H](OC)[C@H]2O[C@@](O)(C(=O)C(=O)N3CCCC[C@H]3C(=O)O[C@H](/C(C)=C/[C@@H]3CC[C@@H](OS(=O)(=O)NC(=O)OC)[C@H](OC)C3)[C@H](C)[C@@H](O)CC1=O)[C@H](C)C[C@@H]2OC [Example 1, (1R,9S,12S,13R,14S,17R,21S,23S,24R,25S,27R)-17-ethyl-1,14-dihydroxy-23,25-dimethoxy-12-{(E)-2-[(1R,3R,4R)-3-methoxy-4-({[(methoxycarbonyl)amino]sulfonyl)oxy)cyclohexyl]-1-methylethenyl}-13,19,21,27-tetramethyl-2,3,10,16-tetraoxo-11,28-dioxa-4-azatricyclo[22.3.1.0^4,9]octacos-18-ene]	0.73 nM
CC[C@@H]1/C=C(\C)C[C@H](C)C[C@H](OC)[C@H]2O[C@@](O)(C(=O)C(=O)N3CCCC[C@H]3C(=O)O[C@H](/C(C)=C/[C@@H]3CC[C@@H](OS(=O)(=O)NC(=O)OC4CCCC4)[C@H](OC)C3)[C@H](C)[C@@H](O)CC1=O)[C@H](C)C[C@@H]2OC [Example 5, (1R,9S,12S,13R,14S,17R,21S,23S,24R,25S,27R)-12-((E)-2-{(1R,3R.4R)-4-[({[(cyclopentyloxy)carbonyl]amino}sulfonyl)oxy]-3-methoxycyclohexyl}-1-methylethenyl)-17-ethyl-1,14-dihydroxy-23,25-dimethoxy-13,19,21,27-tetramethyl-2,3,10,16-tetraoxo-11,28-dioxa-4-azatricyclo[22.3.1.0^4,9]octacos-18-ene]	26.1 nM
